Reference: doi:10.1101/2024.12.30.630793 (bioRxiv, 2024)
Where two headings read alike, the source gives them in different places.

Legend:
Acb4 (SPO1 Acb4) = biological target: T1, Acb4 (SPO1 Acb4) (Bacillus phage SPO1, UniProt B6V2Y3); assay: Electrophoretic mobility shift assay: titration of recombinant Acb4 with 20 nM alpha-32P-radiolabelled cyclic dinucleotide, 50 mM Tris-HCl pH 7.5, 5 mM MgCl2, 10 mM KCl, 1 mM TCEP, 30 min on ice, nondenaturing 6% PAGE, fraction bound fitted to a single binding model.; details: n = 2
T1 construct: gene 1.3; recombinant from E. coli BL21(DE3)-RIL, N-terminal 6xHis-SUMO2 fusion, tag cleaved with SENP2; 96 amino acids, homotetramer
T1 sequence (B6V2Y3 1-96): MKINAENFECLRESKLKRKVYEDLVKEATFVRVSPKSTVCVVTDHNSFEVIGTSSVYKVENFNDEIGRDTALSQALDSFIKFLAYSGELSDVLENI

Bacillus phage SPO1 Acb4 = format: binding; details: for Kd: fraction bound fit to a single binding model, n = 2
[1] = biological target: Bacillus phage SPO1 anti-CBASS 4 (Acb4) (Bacillus phage SPO1); assay: SEC-MALS; recombinant apo SPO1 Acb4 in solution; complex migrates at ~42.3 kDa

In the case of `Nc1ncnc2c1ncn2[C@@H]1O[C@@H]2COP(=O)(O)O[C@@H]3[C@H](O)[C@@H](COP(=O)(O)O[C@H]2[C@H]1O)O[C@H]3n1ccc(=O)[nH]c1=O` [2′3′-cUA, 2′3′-cyclic UMP-AMP, c[U(2′,5′)pA(3′,5′)p]], the Kd (Acb4 (SPO1 Acb4)) is reported as 641 nM.
For `Nc1ncnc2c1ncn2[C@@H]1O[C@@H]2COP(=O)(O)O[C@@H]3[C@H](O)[C@@H](COP(=O)(O)O[C@H]2[C@H]1O)O[C@H]3n1ccc(=O)[nH]c1=O` [2′3′-cUA], the “interaction with Acb4 (EMSA)” value (Bacillus phage SPO1 Acb4) was “recognizes” and the Kd (Bacillus phage SPO1 Acb4) was 641 nM.
For `Nc1ncnc2c1ncn2[C@@H]1O[C@@H]2COP(=O)(O)O[C@H]3[C@@H](O)[C@H](n4cnc5c(N)ncnc54)O[C@@H]3COP(=O)(O)O[C@H]2[C@H]1O` [3′3′-cAA, 3′3′-c-di-AMP], the “interaction with Acb4 (EMSA)” value (Bacillus phage SPO1 Acb4) was “No interaction was detected”.
`Nc1nc2c(ncn2[C@@H]2O[C@@H]3COP(=O)(O)O[C@H]4[C@@H](O)[C@H](n5cnc6c(N)ncnc65)O[C@@H]4COP(=O)(O)O[C@H]3[C@H]2O)c(=O)[nH]1` [3′3′-cGAMP, 3′3′-cyclic GMP-AMP, c[G(3′,5′)pA(3′,5′)p]] gave a Kd (Acb4 (SPO1 Acb4)) of 157 nM.
`Nc1nc2c(ncn2[C@@H]2O[C@@H]3COP(=O)(O)O[C@H]4[C@@H](O)[C@H](n5cnc6c(N)ncnc65)O[C@@H]4COP(=O)(O)O[C@H]3[C@H]2O)c(=O)[nH]1` [3′3′-cGAMP, 3′3′-cyclic GMP-AMP] showed a Kd (Bacillus phage SPO1 Acb4) of roughly 157 nM and a Kd (Bacillus phage SPO1 Acb4; listed as 3'3'-cGAMP) of 157 nM.
With `Nc1nc2c(ncn2[C@@H]2O[C@@H]3COP(=O)(O)O[C@H]4[C@@H](O)[C@H](n5cnc6c(=O)[nH]c(N)nc65)O[C@@H]4COP(=O)(O)O[C@H]3[C@H]2O)c(=O)[nH]1` [3′3′-cGG, 3′3′-c-di-GMP] the “interaction with Acb4 (EMSA)” value (Bacillus phage SPO1 Acb4) was “No interaction was detected”.
`Nc1ncnc2c1ncn2[C@@H]1O[C@@H]2COP(=O)(O)O[C@H]3[C@@H](O)[C@H](n4ccc(=O)[nH]c4=O)O[C@@H]3COP(=O)(O)O[C@H]2[C@H]1O` [3′3′-cUA, 3′3′-cyclic UMP-AMP, c[U(3′,5′)pA(3′,5′)p]] was tested, and the Kd (Acb4 (SPO1 Acb4)) was 262 nM.
For `Nc1ncnc2c1ncn2[C@@H]1O[C@@H]2COP(=O)(O)O[C@H]3[C@@H](O)[C@H](n4ccc(=O)[nH]c4=O)O[C@@H]3COP(=O)(O)O[C@H]2[C@H]1O` [3′3′-cUA], the “interaction with Acb4 (EMSA)” value (Bacillus phage SPO1 Acb4) was “recognizes” and the Kd (Bacillus phage SPO1 Acb4) was 262 nM.
In the case of “Bacillus phage SPO1 anti-CBASS 4 (Acb4) (natural protein)”, the stoichiometry N [1] is reported as 4.
